Results: patent publication US20110162097A1, “NUCLEOTIDE SEQUENCE ENCODING AN ALCOHOL DEHYDROGENASE FROM ARTEMISIA ANNUA AND USES THEREOF” (priority 2008, published 2011)

Legend:
Plasmodium falciparum = settings: reported to be more active than artesunate; cited from earlier work
[1] = target: T1, ADH1 (Artemisia annua alcohol dehydrogenase) (Artemisia annua, UniProt A0A2U1Q018, G20S/L19S/V78I); assay: Specific ADH1 activity enzyme assay (crude protein from E. coli, NAD+, GC/MS analysis); assay type: biochemical; settings: 1 mM NAD+, 0.1 μg/μl substrate, approximately 90 μg crude protein, 30° C., 30 minutes
T1 construct: 6xHis (N-terminal tag and attB linker encoded by pDEST17); made in house; host or cells: E. coli Rosetta (DE3)
T1 sequence (A0A2U1Q018 whole entry L19S/G20S/V78I): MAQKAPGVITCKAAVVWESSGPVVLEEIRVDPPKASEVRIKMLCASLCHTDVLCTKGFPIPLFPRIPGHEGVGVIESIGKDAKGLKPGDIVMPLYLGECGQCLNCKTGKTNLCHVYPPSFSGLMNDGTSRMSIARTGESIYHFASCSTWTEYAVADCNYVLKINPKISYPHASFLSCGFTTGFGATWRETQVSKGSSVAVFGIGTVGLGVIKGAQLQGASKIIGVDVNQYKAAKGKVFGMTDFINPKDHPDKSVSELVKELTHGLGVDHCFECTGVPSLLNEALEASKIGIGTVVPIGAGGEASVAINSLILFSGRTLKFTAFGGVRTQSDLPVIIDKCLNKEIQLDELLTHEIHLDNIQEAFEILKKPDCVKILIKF
Description: The Gateway vector pDEST17 had the Adh1 gene inserted and was subsequently transformed into a competent expression E. coli strain Rosetta (DE3). These cells were grown overnight in 3 ml of LB broth amended with 100 μg/ml ampicillin. An aliquot of 1 ml overnight culture was sub cultured to 100 ml of fresh LB broth also amended with 100 μg/ml of ampicillin. The culture was incubated at 37° C. until the optical density reached 0.8 at 600 nm. A final concentration of 1 mM IPTG was then added to the culture and the flask was incubated at 30° C. for another 4 hours. Cells were harvested by centrifugation at 10,000 rcf for 10 minutes. Pelleted cells were resuspended in 20 mM sodium phosphate pH 7.4 and 500 mM NaCl. Cell walls were disrupted by sonication on ice at intervals of 0.7 seconds for 1 minute, followed by a 1 minute cool down this was repeated three times. The sonicated cells were centrifuged at 10,000 rcf for 10 minutes; the supernatant which contained the soluble ADH1 was concentrated and desalted by spin dialysis (using Amicon Ultra-15 devices; Millipore, Mass.), and stored in a new tube at 4° C. This method of recombination and expression was also used for a control plasmid pDEST17-gus.
Enzyme assay was prepared to determine the specific activity of ADH1. […]

Row | Compound | activity relative to artesunate (Plasmodium falciparum) | oxidation of substrate by ADH1 (product observed by GC/MS) [1]
1 | C[C@H]1[C@H](N2CCS(=O)(=O)CC2)O[C@@H]2O[C@@]3(C)CC[C@H]4[C@H](C)CC[C@@H]1[C@@]24OO3 [Artemisone] | 10-30 fold | –
2 | C=C(CO)[C@@H]1CC[C@@H](C)[C@@H]2CCC(C)=C[C@@H]21 [artemisinic alcohol] | – | presence of product artemisinic aldehyde
3 | CC1=C[C@H]2[C@@H](CC1)[C@H](C)CC[C@H]2[C@@H](C)CO [dihydroartemisinic alcohol, (11R)-dihydroartemisinic alcohol] | – | no observed product
